Tests used:
[1] = tested on: Rattus norvegicus; test: Tested for neuroleptic activity by measuring antagonism of d-amphetamine sulfate at intraperitoneal dosage of 5 mg/kg, after 24 hours in rat; type: functional; details: ip
[2] = tested on: Rattus norvegicus; test: Tested for neuroleptic activity by measuring antagonism of d-amphetamine sulfate at intraperitoneal dosage of 5 mg/kg, after 1 hour in rat; Range is 3.2-10; type: functional; details: ip
[3] = tested on: Rattus norvegicus; test: Tested for neuroleptic activity by measuring antagonism of d-amphetamine sulfate at intraperitoneal dosage of 5 mg/kg, after 5 hours in rat; Range is 10-32; type: functional; details: ip
[4] = tested on: Rattus norvegicus; test: Tested for neuroleptic activity by measuring antagonism of d-amphetamine sulfate at intraperitoneal dosage of 5 mg/kg, after 5 hours in rat; type: functional; details: ip
[5] = tested on: Rattus norvegicus; test: Tested for neuroleptic activity by measuring antagonism of d-amphetamine sulfate at intraperitoneal dosage of 5 mg/kg, after 1 hour in rat; Range is 10-32; type: functional; details: ip
[6] = tested on: Rattus norvegicus; test: Tested for neuroleptic activity by measuring antagonism of d-amphetamine sulfate at intraperitoneal dosage of 5 mg/kg, after 1 hour in rat; Range is 0.32-1.0; type: functional; details: ip
[7] = tested on: Rattus norvegicus; test: Tested for neuroleptic activity by measuring antagonism of d-amphetamine sulfate at intraperitoneal dosage of 5 mg/kg, after 5 hours in rat; Range is 0.32-1.0; type: functional; details: ip
[8] = organism: Rattus norvegicus; test: Inhibition of amphetamine induced stereotypy in rats; pretreated 1 hr before amphetamine.; type: functional
[9] = tested on: Canis familiaris; test: The ability of compound to prevent the emesis induced by apomorphine (0.1 mg/kg, iv) in dogs at the specified dosage of 3.2 mg/kg (sesame oil); type: functional, Canis lupus familiaris
[10] = tested on: Rattus norvegicus; test: Tested for neuroleptic activity by measuring antagonism of d-amphetamine sulfate at intraperitoneal dosage of 5 mg/kg, after 5 hours in rat; Range is 1.0-3.2; type: functional; details: ip
[11] = tested on: Rattus norvegicus; test: Tested for neuroleptic activity by measuring antagonism of d-amphetamine sulfate at intraperitoneal dosage of 5 mg/kg, after 1 hour in rat; Range is 1.0-3.2; type: functional; details: ip
[12] = tested on: Rattus norvegicus; test: Tested for neuroleptic activity by measuring antagonism of d-amphetamine sulfate at intraperitoneal dosage of 5 mg/kg, after 5 hours in rat; Range is 3.2-10; type: functional; details: ip
[13] = tested on: Rattus norvegicus; test: Tested for neuroleptic activity by measuring antagonism of d-amphetamine sulfate at intraperitoneal dosage of 5 mg/kg, after 1 hour in rat; Range is 32-56; type: functional; details: ip
[14] = tested on: Rattus norvegicus; test: Tested for neuroleptic activity by measuring antagonism of d-amphetamine sulfate at intraperitoneal dosage of 5 mg/kg, after 1 hour in rat; Range is 0.1-0.32; type: functional; details: ip

SMILES: CN1CCc2c(c3cc(Cl)ccc3n2-c2ccccc2)C1.Cl
- ED50 [1]: > 32 mg/kg
- ED50 [2]: 3.2 mg/kg
- ED50 [3]: 10 mg/kg

SMILES: Cc1ccc2c(c1)c1c(n2-c2ccccc2)CCN(C)C1
- ED50 [4]: > 32 mg/kg
- ED50 [1]: > 32 mg/kg
- ED50 [5]: 10 mg/kg

SMILES: Cl.OC(CCCN1CCc2c(c3cc(F)ccc3n2-c2ccc(F)cc2)C1)c1ccccc1 (stereo unspecified)
- ED50 [1]: > 3.2 mg/kg
- ED50 [6]: 0.32 mg/kg
- ED50 [7]: 0.32 mg/kg

SMILES: Cl.O=C(CCCCN1CCc2c(c3cc(F)ccc3n2-c2ccc(F)cc2)C1)c1ccc(F)cc1
- ED50 [4]: > 32 mg/kg
- ED50 [1]: > 32 mg/kg
- ED50 [8]: > 32 mg/kg

SMILES: Fc1ccc(C(=CCCN2CCc3c(c4cc(F)ccc4n3-c3ccc(F)cc3)C2)c2ccc(F)cc2)cc1
- ED50 [4]: > 32 mg/kg
- ED50 [1]: > 32 mg/kg
- ED50 [8]: > 32 mg/kg

SMILES: Cl.OC(CCCN1CCc2c(c3cc(F)ccc3n2-c2cccc(F)c2)C1)c1ccc(F)cc1 (stereo unspecified)
- ED50 [4]: > 10 mg/kg
- ED50 [2]: 3.2 mg/kg

SMILES: COc1ccc2c(c1)c1c(n2-c2ccc(F)cc2)CCN(C)C1.Cl
- ED50 [4]: > 32 mg/kg
- ED50 [8]: > 32 mg/kg

SMILES: Cl.OC(CCCN1CCc2c(c3cc(F)ccc3n2-c2ccc(F)cc2)C1)c1cccc(C(F)(F)F)c1 (stereo unspecified)
- ED50 [4]: > 10 mg/kg
- ED50 [8]: > 10 mg/kg

SMILES: Cl.O=C(CCCN1CCc2c(c3cc(F)ccc3n2-c2ccc(C(F)(F)F)cc2)C1)c1ccc(F)cc1
- ED50 [8]: > 32 mg/kg

SMILES: CCCCCCCCCCCCCCCCCC(=O)OC(CCCN1CCc2c(c3cc(F)ccc3n2-c2ccc(F)cc2)C1)c1ccc(F)cc1 (stereo unspecified)
- Protection [9]: 0 days

SMILES: COc1ccc2c(c1)c1c(n2-c2ccccc2)CCN(C)C1.Cl
- ED50 [4]: > 32 mg/kg
- ED50 [8]: > 32 mg/kg

SMILES: CN1CCc2c(c3ccccc3n2-c2ccccc2)C1.Cl
- ED50 [1]: > 32 mg/kg
- ED50 [5]: 10 mg/kg

SMILES: Cl.OC(CCCCN1CCc2c(c3cc(F)ccc3n2-c2ccc(F)cc2)C1)c1ccc(F)cc1 (stereo unspecified)
- ED50 [10]: 1 mg/kg
- ED50 [1]: > 3.2 mg/kg
- ED50 [11]: 1 mg/kg

SMILES: COc1ccc(-n2c3c(c4cc(F)ccc42)CN(CCCC(=O)c2ccc(F)cc2)CC3)cc1.Cl
- ED50 [4]: > 32 mg/kg
- ED50 [5]: 10 mg/kg

SMILES: Cl.Fc1ccc(-n2c3c(c4cc(F)ccc42)CN(Cc2ccccc2)CC3)cc1
- ED50 [4]: > 10 mg/kg
- ED50 [1]: > 10 mg/kg
- ED50 [2]: 3.2 mg/kg

SMILES: Cl.Cl.OC(CCCN1CCc2c(c3cc(F)ccc3n2-c2ccc(F)cc2)C1)c1cccnc1 (stereo unspecified)
- ED50 [4]: > 3.2 mg/kg
- ED50 [8]: > 3.2 mg/kg

SMILES: Cl.OC(CCCN1CCc2c(c3cc(F)ccc3n2-c2ccc(C(F)(F)F)cc2)C1)c1ccc(F)cc1 (stereo unspecified)
- ED50 [5]: 10 mg/kg
- ED50 [3]: 10 mg/kg

SMILES: Cl.O=C(CCCN1CCc2c(c3cc(F)ccc3n2-c2ccc(F)cc2)C1)c1cccc(F)c1
- ED50 [1]: > 32 mg/kg
- ED50 [5]: 10 mg/kg
- ED50 [3]: 10 mg/kg

SMILES: CC(C)(C)CCN1CCc2c(c3cc(F)ccc3n2-c2ccc(F)cc2)C1.Cl
- ED50 [4]: > 10 mg/kg
- ED50 [1]: > 10 mg/kg
- ED50 [8]: > 10 mg/kg

SMILES: Cn1c2c(c3cc(F)ccc31)CN(CCCC(=O)c1ccc(F)cc1)CC2
- ED50 [4]: > 32 mg/kg
- ED50 [5]: 10 mg/kg

SMILES: Cl.OC(CCCN1CCc2c(c3cc(F)ccc3n2-c2ccc(F)cc2)C1)c1ccc(Cl)cc1 (stereo unspecified)
- ED50 [10]: 1 mg/kg
- ED50 [1]: > 3.2 mg/kg
- ED50 [11]: 1 mg/kg

SMILES: CC(=O)OC(CCCN1CCc2c(c3cc(F)ccc3n2-c2ccc(F)cc2)C1)c1ccc(F)cc1 (stereo unspecified)
- Protection [9]: 0 days

SMILES: Cl.O=C(CCCN1CCc2c(c3cc(F)ccc3n2-c2ccc(F)cc2)C1)c1ccc(Cl)cc1
- ED50 [12]: 3.2 mg/kg
- ED50 [2]: 3.2 mg/kg

SMILES: Cl.OC(CCCN1CCc2c(c3cc(F)ccc3n2-c2cccc(C(F)(F)F)c2)C1)c1ccc(F)cc1 (stereo unspecified)
- ED50 [4]: > 32 mg/kg
- ED50 [8]: > 32 mg/kg

SMILES: CCN1CCc2c(c3cc(F)ccc3n2-c2ccc(F)cc2)C1.Cl
- ED50 [4]: > 10 mg/kg
- ED50 [1]: > 10 mg/kg
- ED50 [2]: 3.2 mg/kg

SMILES: Cc1ccc(C(=O)CCCN2CCc3c(c4cc(F)ccc4n3-c3ccc(F)cc3)C2)cc1
- ED50 [4]: > 10 mg/kg
- ED50 [8]: > 10 mg/kg

SMILES: OC(CCCN1CCc2c(c3cc(F)ccc3n2-c2ccc(F)cc2)C1)c1cccs1 (stereo unspecified)
- ED50 [4]: > 32 mg/kg
- ED50 [5]: 10 mg/kg

SMILES: CN1CCc2c(c3cc(Br)ccc3n2-c2ccccc2)C1.Cl
- ED50 [2]: 3.2 mg/kg

SMILES: Cn1c2c(c3cc(F)ccc31)CN(CCCC(O)c1ccc(F)cc1)CC2 (stereo unspecified)
- ED50 [1]: > 32 mg/kg
- ED50 [5]: 10 mg/kg
- ED50 [3]: 10 mg/kg

SMILES: OC(CCCN1CCc2[nH]c3ccc(F)cc3c2C1)c1ccc(F)cc1 (stereo unspecified)
- ED50 [4]: > 10 mg/kg
- ED50 [1]: > 10 mg/kg
- ED50 [2]: 3.2 mg/kg

SMILES: Cl.OC(CCCN1CCc2c(c3cc(F)ccc3n2-c2ccc(F)cc2)C1)c1ccc(Cl)c(C(F)(F)F)c1 (stereo unspecified)
- ED50 [4]: > 32 mg/kg
- ED50 [1]: > 32 mg/kg
- ED50 [8]: > 32 mg/kg

SMILES: Cl.O=C(CCCN1CCc2c(c3cc(F)ccc3n2-c2ccc(F)cc2)C1)c1cccs1
- ED50 [4]: > 32 mg/kg
- ED50 [5]: 10 mg/kg

SMILES: Cl.OC(CCCN1CCc2c(c3cc(F)ccc3n2-c2ccccc2F)C1)c1ccc(F)cc1 (stereo unspecified)
- ED50 [10]: 1 mg/kg
- ED50 [1]: > 10 mg/kg
- ED50 [6]: 0.32 mg/kg

SMILES: CCOC(=O)N1CCc2c(c3cc(F)ccc3n2-c2ccc(F)cc2)C1
- ED50 [4]: > 32 mg/kg
- ED50 [1]: > 32 mg/kg
- ED50 [8]: > 32 mg/kg

SMILES: Cl.Fc1ccc(-n2c3c(c4cc(F)ccc42)CN(CCc2ccccc2)CC3)cc1
- ED50 [4]: > 32 mg/kg
- ED50 [5]: 10 mg/kg

SMILES: COc1ccc(C(O)CCCN2CCc3c(c4cc(F)ccc4n3-c3ccc(F)cc3)C2)cc1.Cl (stereo unspecified)
- ED50 [10]: 1 mg/kg
- ED50 [1]: > 3.2 mg/kg
- ED50 [11]: 1 mg/kg

SMILES: COc1ccc(-n2c3c(c4cc(F)ccc42)CN(CCCC(O)c2ccc(F)cc2)CC3)cc1.Cl (stereo unspecified)
- ED50 [4]: 3.2 mg/kg
- ED50 [1]: > 3.2 mg/kg
- ED50 [8]: 1 mg/kg

SMILES: O=C(CCCN1CCc2[nH]c3ccc(F)cc3c2C1)c1ccc(F)cc1
- ED50 [1]: > 32 mg/kg
- ED50 [12]: 3.2 mg/kg
- ED50 [11]: 1 mg/kg

SMILES: Cl.Fc1ccc(/C=C/CCN2CCc3c(c4cc(F)ccc4n3-c3ccc(F)cc3)C2)cc1
- ED50 [10]: 1 mg/kg
- ED50 [1]: > 3.2 mg/kg
- ED50 [2]: 3.2 mg/kg

SMILES: OC(CCN1CCc2c(c3cc(F)ccc3n2-c2ccc(F)cc2)C1)c1ccc(F)cc1 (stereo unspecified)
- ED50 [4]: > 10 mg/kg
- ED50 [1]: > 10 mg/kg
- ED50 [2]: 3.2 mg/kg

SMILES: CN1CCc2c(c3cc(F)ccc3n2-c2ccc(F)cc2)C1.Cl
- ED50 [1]: > 10 mg/kg
- ED50 [12]: 3.2 mg/kg
- ED50 [11]: 1 mg/kg

SMILES: Fc1ccc(-n2c3c(c4cc(F)ccc42)CNCC3)cc1
- ED50 [5]: 10 mg/kg

SMILES: Cl.Fc1ccc(C(CCCN2CCc3c(c4cc(F)ccc4n3-c3ccc(F)cc3)C2)c2ccc(F)cc2)cc1
- ED50 [4]: > 32 mg/kg
- ED50 [1]: > 32 mg/kg
- ED50 [8]: > 32 mg/kg

SMILES: CN1CCc2[nH]c3ccc(Cl)cc3c2C1
- ED50 [13]: 32 mg/kg

SMILES: CN1CCN(CC/C=C2/c3ccccc3Sc3ccc(S(=O)(=O)N(C)C)cc32)CC1 [THIOTHIXENE]
- ED50 [1]: > 17.8 mg/kg
- ED50 [6]: 0.32 mg/kg
- ED50 [7]: 0.32 mg/kg

SMILES: CN1CCc2c(c3cc(Cl)ccc3n2-c2ccc(F)cc2)C1.Cl
- ED50 [1]: > 10 mg/kg
- ED50 [12]: 3.2 mg/kg
- ED50 [11]: 1 mg/kg

SMILES: CN1CCc2c(c3cc(Cl)ccc3n2C)C1.Cl
- ED50 [13]: 32 mg/kg

SMILES: Cl.O=C(CCCN1CCc2c(c3cc(F)ccc3n2-c2cccc(C(F)(F)F)c2)C1)c1ccc(F)cc1
- ED50 [8]: > 32 mg/kg

SMILES: Cl.OC(CCCN1CCc2c(c3cc(F)ccc3n2-c2ccc(F)cc2)C1)c1ccccc1F (stereo unspecified)
- ED50 [14]: 0.1 mg/kg
- ED50 [10]: 1 mg/kg
- ED50 [1]: > 3.2 mg/kg

SMILES: Cc1ccc(C(O)CCCN2CCc3c(c4cc(F)ccc4n3-c3ccc(F)cc3)C2)cc1.Cl (stereo unspecified)
- ED50 [14]: 0.1 mg/kg
- ED50 [10]: 1 mg/kg
- ED50 [1]: > 10 mg/kg

SMILES: Cl.O=C(CCCN1CCc2c(c3cc(F)ccc3n2-c2ccc(F)cc2)C1)c1ccccc1
- ED50 [5]: 10 mg/kg
- ED50 [3]: 10 mg/kg

SMILES: CN1CCc2c(c3cc(F)ccc3n2-c2ccccc2)C1.Cl
- ED50 [1]: > 32 mg/kg
- ED50 [2]: 3.2 mg/kg
- ED50 [3]: 10 mg/kg

SMILES: CCCN1CCc2c(c3cc(F)ccc3n2-c2ccc(F)cc2)C1.Cl
- ED50 [4]: > 10 mg/kg
- ED50 [2]: 3.2 mg/kg

From ChEMBL document CHEMBL1121451, “Neuroleptic activity in 5-aryltetrahydro-gamma-carbolines” (J Med Chem, 1980)
